# Patent US6114334A, “Piperazine derivatives as therapeutic agents” (Knoll Aktiengesellschaft, priority 1995, dated 2000)
# Assays:
# α2D-adrenoceptors = biological target: T1, α2D-adrenoceptors (Rattus norvegicus, UniProt P22909); assay: inhibition of tritiated idazoxan binding to α2D-adrenoceptors in vitro; parameters: species or system rat (male Charles River CD, frontal cortical tissue); conditions: rat frontal cortex; for Ki: [3H]idazoxan 1 nM, 0° C., 75 min
# T1 sequence (P22909 1-465): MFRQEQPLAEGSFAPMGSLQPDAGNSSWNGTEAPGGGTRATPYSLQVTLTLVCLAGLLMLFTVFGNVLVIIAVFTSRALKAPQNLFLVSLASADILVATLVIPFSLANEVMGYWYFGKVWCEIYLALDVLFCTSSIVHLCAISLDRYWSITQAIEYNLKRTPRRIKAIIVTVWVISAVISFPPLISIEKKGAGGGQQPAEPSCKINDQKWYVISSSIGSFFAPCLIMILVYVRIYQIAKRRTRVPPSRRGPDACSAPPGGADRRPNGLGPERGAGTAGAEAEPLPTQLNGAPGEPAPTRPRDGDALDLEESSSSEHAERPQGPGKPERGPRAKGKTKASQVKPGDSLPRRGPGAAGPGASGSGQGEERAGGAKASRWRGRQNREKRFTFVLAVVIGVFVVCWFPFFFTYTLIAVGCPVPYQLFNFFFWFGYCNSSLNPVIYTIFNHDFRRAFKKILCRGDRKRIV
# α1-adrenoceptors = assay: inhibition of 7-methoxy-[3H]prazosin binding to α1-adrenoceptors in vitro; parameters: species or system rat (male Charles River CD, whole cortical tissue); conditions: rat whole cortex, 30 min; for Ki: 7-methoxy-[3H]prazosin 0.1 nM, 30° C.
# Description: Whole cortical tissue from the brains of male Charles River CD rats weighing between 150-250 g were homogenised in ice-cold 50 mM Tris-HCl, pH 7.6 (at 25° C.; 1:40 w/v) and centrifuged at 1000 g at 4° C. for 10 minutes. The supernatant was centrifuged at 30,000 g at 4° C. for 10 minutes. The pellet was rehomogenised in 50 mM Tris-HCl, pH 7.6 (1:40 w/v) and centrifuged at 30,000 g at 4° C. for 10 minutes. The final pellet was resuspended in 50 mM Tris-HCl, pH 7.6 (equivalent to 12.5 mg wet weight of tissue/ml) and used immediately in the binding assay. Aliquots (400 μl; equivalent to 5 mg wet weight of tissue/tube) of this suspension were added to tubes containing the ligand (50 μl; 0.1 nM) and distilled water (50 μl; total binding) or phentolamine (50 μl; 5 μM; non-specific binding) or test compound (50 μl; at a single concentration of 10^-6 M or at 10 concentrations ranging from 10^-11 -10^-3 M). The ligand was 7-methoxy-[^3 H]prazosin and the mixture was incubated at 30° C. for 30 minutes before the incubation was terminated by rapid filtration. The filters were washed with ice-cold Tris-HCl buffer and dried. The filters were punched out into vials, scintillation fluid added and radioactivity determined by liquid scintillation counting. The percentage displacement of specific binding of the tritiated ligand was calculated for the single concentration (10^-6 M) of test compound. […] The concentration which gave 50% inhibition of specific binding (IC50) was obtained from the curve. The inhibition coefficient Ki was then calculated using the formula [formula] in which [ligand] is the concentration of the tritiated ligand used and KD is the equilibrium dissociation constant for the ligand.
# 5-HT1A receptors = biological target: T2, 5-HT1A receptors (Rattus norvegicus, UniProt P19327); assay: inhibition of [3H]8-OH-DPAT binding to 5-HT1A receptors in vitro; parameters: species or system rat (male Sprague-Dawley, hippocampal tissue); conditions: rat hippocampus; for Ki: [3H]8-OH-DPAT 2 nM, 25° C., 30 min; for inhibition at 1 µM: 10^-6 M, [3H]8-OH-DPAT, read-out: % displacement at 10^-6 M, 5-HT1A
# T2 sequence (P19327 1-422): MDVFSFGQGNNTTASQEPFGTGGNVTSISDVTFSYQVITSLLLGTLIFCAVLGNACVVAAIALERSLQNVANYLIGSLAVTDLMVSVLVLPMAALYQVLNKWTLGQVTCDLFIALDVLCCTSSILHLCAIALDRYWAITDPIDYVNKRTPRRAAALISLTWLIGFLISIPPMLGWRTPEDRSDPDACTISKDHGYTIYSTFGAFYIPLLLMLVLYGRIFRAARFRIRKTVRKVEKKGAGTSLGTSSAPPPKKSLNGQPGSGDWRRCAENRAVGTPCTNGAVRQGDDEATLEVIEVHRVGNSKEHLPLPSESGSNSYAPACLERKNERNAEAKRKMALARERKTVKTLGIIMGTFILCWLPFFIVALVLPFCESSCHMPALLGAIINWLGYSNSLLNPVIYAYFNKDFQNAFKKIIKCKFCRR
# D2 dopamine receptors = D2 dopamine receptors (Rattus norvegicus, UniProt P61169); assay: inhibition of tritiated (S)-sulpiride binding to D2 dopamine receptors in vitro; parameters: species or system rat (male Charles River CD, striatal tissue); conditions: rat striatum; for Ki: tritiated (S)-sulpiride 1 nM, 4° C., 40 min
# Sequence of D2 dopamine receptors (P61169 whole entry): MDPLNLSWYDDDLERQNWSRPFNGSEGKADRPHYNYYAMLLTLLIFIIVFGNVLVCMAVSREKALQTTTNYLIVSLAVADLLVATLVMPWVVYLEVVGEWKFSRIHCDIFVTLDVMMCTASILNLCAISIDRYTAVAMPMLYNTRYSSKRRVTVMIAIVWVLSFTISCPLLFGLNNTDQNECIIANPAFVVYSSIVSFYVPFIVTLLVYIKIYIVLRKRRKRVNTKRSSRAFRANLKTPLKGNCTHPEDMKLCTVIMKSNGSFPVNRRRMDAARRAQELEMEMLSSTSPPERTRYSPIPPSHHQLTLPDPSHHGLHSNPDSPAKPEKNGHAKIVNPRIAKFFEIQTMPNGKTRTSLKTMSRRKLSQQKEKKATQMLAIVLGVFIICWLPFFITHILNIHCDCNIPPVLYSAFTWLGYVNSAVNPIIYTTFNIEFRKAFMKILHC
SMILES,Ki (α2D-adrenoceptors),Ki (α1-adrenoceptors),Ki (5-HT1A receptors),Ki (D2 dopamine receptors),inhibition at 1 µM (5-HT1A receptors),"inhibition at 1 µM (D2 dopamine receptors; 10^-6 M, tritiated (S)-sulpiride, read-out: % displacement at 10^-6 M, D2)","% displacement at 10^-6 M, α1 (α1-adrenoceptors; 10^-6 M, 7-methoxy-[3H]prazosin, 1 µM)","inhibition at 1 µM (α2D-adrenoceptors; 10^-6 M, [3H]idazoxan, read-out: % displacement at 10^-6 M, α2D)"
"COc1ccccc1N1CCN(Cc2c(N)n(C)n(-c3ccccc3)c2=O)CC1 [Example 1, 3-amino-4-[4-(2-methoxyphenyl)piperazin-1-ylmethyl]-2-methyl-1-phenyl-3-pyrazolin-5-one]",130 nM,23 nM,169 nM,192 nM,–,–,–,–
"COc1ccccc1N1CCN(Cc2c(C3CC3)nn(-c3ccccc3)c2N)CC1 [Example 9, 5-amino-3-cyclopropyl-4-[4-(2-methoxyphenyl)piperazin-1-ylmethyl]-1-phenylpyrazole]",81 nM,9 nM,49 nM,374 nM,–,–,–,–
"Nc1c(CN2CCN(c3cccc(C(F)(F)F)c3)CC2)c(C2CC2)nn1-c1ccccc1 [Example 15, 5-Amino-3-cyclopropyl-1-phenyl-4-{4-[3-(trifluoromethyl)phenyl]piperazin-1-ylmethyl}pyrazole]",> 500 nM,> 500 nM,–,337 nM,67%,–,–,–
"C=CCN1C(=O)C(C)(CN2CCN(c3ccccc3OC)CC2)N=C1c1cccnc1 (centres unmarked) [Example 39, 1-allyl-4-[4-(2-methoxyphenyl)piperazin-1-ylmethyl]-4-methyl-2-(3-pyridyl)-2-imidazolin-5-one]",115 nM,> 500 nM,101 nM,–,–,72%,–,–
"C=CCn1c(-c2cccnc2)nn(CN2CCN(c3cccc4c3OCCO4)CC2)c1=S [Example 45, 4-allyl-2-[4-(1,4-benzodioxan-5-yl)piperazin-1-ylmethyl]-5-(3-pyridyl)-1,2,4-triazole-3(2H,4H)-thione]",225 nM,> 500 nM,31 nM,322 nM,–,–,–,–
"C=CCn1c(-c2cccnc2)nn(CCCCN2CCN(c3ccccc3OC)CC2)c1=O [Example 46, 4-allyl-2-{4-[4-(2-methoxyphenyl)piperazin-1-yl]butyl}-5-(3-pyridyl)-1,2,4-triazol-3(2H,4H)-one]",> 500 nM,16 nM,64 nM,48 nM,–,–,–,–
"C=CCn1c(-c2cccnc2)nn(CN2CCN(c3ncccn3)CC2)c1=S [Example 57, 4-Allyl-5-(3-pyridyl)-2-[4-(pyrimidin-2-yl)piperazin-1-ylmethyl]-1,2,4-triazole-3(2H,4H)-thione]",–,> 500 nM,> 500 nM,> 500 nM,–,–,–,95%
"C=CCn1c(C)nn(CN2CCN(c3ccccc3OC)CC2)c1=S [Example 59, 4-Allyl-2-[4-(2-methoxyphenyl)piperazin-1-ylmethyl]-5-methyl-1,2,4-triazole-3(2H,4H)-thione]",255 nM,497 nM,119 nM,306 nM,–,–,–,–

# The remaining lines, values ahead:
Ki (α2D-adrenoceptors),Ki (α1-adrenoceptors),Ki (5-HT1A receptors),Ki (D2 dopamine receptors),inhibition at 1 µM (5-HT1A receptors),"inhibition at 1 µM (D2 dopamine receptors; 10^-6 M, tritiated (S)-sulpiride, read-out: % displacement at 10^-6 M, D2)","% displacement at 10^-6 M, α1 (α1-adrenoceptors; 10^-6 M, 7-methoxy-[3H]prazosin, 1 µM)","inhibition at 1 µM (α2D-adrenoceptors; 10^-6 M, [3H]idazoxan, read-out: % displacement at 10^-6 M, α2D)",SMILES
178 nM,> 500 nM,152 nM,262 nM,–,–,–,–,"C=CCn1c(-c2cccnc2)nn(CN2CCN(c3ccccc3OC)CC2)c1=S [Example 47, 4-Allyl-2-[4-(2-methoxyphenyl)piperazin-1-ylmethyl]-5-(3-pyridyl)-1,2,4-triazole-3(2H,4H)-thione]"
71 nM,430 nM,108 nM,200 nM,–,–,–,–,"COc1ccccc1N1CCN(Cn2nc(-c3ccc(Cl)cc3)n(-c3cccnc3)c2=S)CC1 [Example 48, 5-(4-Chlorophenyl)-2-[4-(2-methoxyphenyl)piperazin-1-ylmethyl]-4-(3-pyridyl)-1,2,4-triazole-3(2H,4H)-thione]"
146 nM,> 500 nM,123 nM,121 nM,–,–,–,–,"C=CCn1c(-c2ccncc2)nn(CN2CCN(c3ccccc3OC)CC2)c1=S [Example 49, 4-Allyl-2-[4-(2-methoxyphenyl)piperazin-1-ylmethyl]-5-(4-pyridyl)-1,2,4-triazole-3(2H,4H)-thione]"
194 nM,> 500 nM,170 nM,192 nM,–,–,–,–,"COCCCn1c(-c2ccncc2)nn(CN2CCN(c3ccccc3OC)CC2)c1=S [Example 50, 2-[4-(2-Methoxyphenyl)piperazin-1-ylmethyl]-4-(3-methoxypropyl)-5-(4-pyridyl)-1,2,4-triazole-3(2H,4H)-thione]"
> 500 nM,–,–,134 nM,54%,–,53%,–,"COc1ccccc1N1CCN(Cn2nc(-c3ccncc3)n(C)c2=S)CC1 [Example 51, 2-[4-(2-Methoxyphenyl)piperazin-1-ylmethyl]-4-methyl-5-(4-pyridyl)-1,2,4-triazole-3(2H,4H)-thione]"
148 nM,> 500 nM,150 nM,222 nM,–,–,–,–,"C=CCn1c(-c2ccccc2)nn(CN2CCN(c3ccccc3OC)CC2)c1=S [Example 52, 4-Allyl-2-[4-(2-methoxyphenyl)piperazin-1-ylmethyl]-5-phenyl-1,2,4-triazole-3(2H,4H)-thione]"
150 nM,> 500 nM,117 nM,274 nM,–,–,–,–,"CCCn1c(-c2ccncc2)nn(CN2CCN(c3ccccc3OC)CC2)c1=S [Example 53, 2-[4-(2-Methoxyphenyl)piperazin-1-ylmethyl]-4-propyl-5-(4-pyridyl)-1,2,4-triazole-3(2H,4H)-thione]"
218 nM,477 nM,135 nM,243 nM,–,–,–,–,"COc1ccccc1N1CCN(Cn2nc(C(F)(F)F)n(C)c2=S)CC1 [Example 54, 2-[4-(2-Methoxyphenyl)piperazin-1-ylmethyl]-4-methyl-5-(trifluoromethyl)-1,2,4-triazole-3(2H,4H)-thione]"
194 nM,358 nM,108 nM,73 nM,–,–,–,–,"COc1ccccc1N1CCN(Cn2ncn(C)c2=S)CC1 [Example 55, 2-[4-(2-Methoxyphenyl)piperazin-1-ylmethyl]-4-methyl-1,2,4-triazole-3(2H,4H)-thione]"
197 nM,401 nM,105 nM,158 nM,–,–,–,–,"C=CCn1c(-c2ccco2)nn(CN2CCN(c3ccccc3OC)CC2)c1=S [Example 56, 4-Allyl-5-(2-furyl)-2-[4-(2-methoxyphenyl)piperazin-1-ylmethyl]-1,2,4-triazole-3(2H,4H)-thione]"
104 nM,301 nM,126 nM,173 nM,–,–,–,–,"C=CCn1c(-c2ccccn2)nn(CN2CCN(c3ccccc3OC)CC2)c1=S [Example 58, 4-Allyl-2-[4-(2-methoxyphenyl)piperazin-1-ylmethyl]-5-(2-pyridyl)-1,2,4-triazole-3(2H,4H)-thione]"
82 nM,159 nM,138 nM,155 nM,–,–,–,–,"C=CCn1c(-c2cccs2)nn(CN2CCN(c3ccccc3OC)CC2)c1=S [Example 60, 4-Allyl-2-[4-(2-methoxyphenyl)piperazin-1-ylmethyl]-5-(2-thienyl)-1,2,4-triazole-3(2H,4H)-thione]"
